The values that follow come from patent US11986482B2, “Method of promoting antitumor or anti-cancer immunity” (City University of Hong Kong, priority 2021, dated 2024).

Structures are written as SMILES.

In the assay the test system is PD-L1. Put plainly: PD-L1 colocalization imaging in PD-L1-GFP HeLa cells. The format is cell-based. Conditions: 1 μM, 24 h. How it is done: Next, inventors assess if 6J1 can compromise PD-L1 trafficking. PDL1-GFP stable expressing HeLa cells are treated with or without 6J1 (1 μM) for 24 h. Cells are fixed and stained with Rab5 or EEA1. Their quantifications of the colocalization are shown in FIGS. 4d and 4e, respectively. […] Inventors thus further quantify cell membrane PD-L1 levels in live cells treated with or without 6J1 by flow cytometry or confocal imaging.
It has previously been shown that interfering with endosomal trafficking promotes exosome secretion. Moreover, PD-L1 has been reported to be enriched in exosomes and secreted outside the cell. Thus, inventors speculate that 6J1 may induce the secretion of the PD-L1 trapped in the endosomal compartments via exosomes. To determine whether 6J1 may induce the secretion of PD-L1 via exosomes, HeLa cells are treated with or without 6J1 (1 μM) for 24 h. The supernatant is collected. Inventors purify the exosomes from the supernatant of HeLa cells by sequential centrifugation. The concentration of extracellular vesicle is determined using a Nanosight nanoparticle analyzer. And HeLa cells are treated with or without 6J1 (1 μM) for 48 h. The cell and supernatant are collected for Western Blot analysis. […] Moreover, the activity of Rab27a in HeLa cells treated with or without 6J1 (1 μM) is examined with a GST-SHD pulldown assay.
HeLa cells are treated with or without 6J1. After 6 h, cells are collected for western blot analysis of LC3 and p62. […] In addition, ATG5-knockout HeLa cells are transfected with PD-L1-GFP and LC3-RFP, and then treated with or without 6J1 (1 μM) for 24 h. Cells are fixed and imaged. […] Furthermore, LC3B-knockout HeLa cells are transfected with PD-L1-GFP, and then treated with or without 6J1 (1 μM) for 24 h. Cells are fixed and stained with antibodies against Rab5 (FIG. 6d) or Rab27a (FIG. 6e).

In the case of `OCCOCCN(c1ccccc1)c1nc(N/N=C/c2cccc(I)c2)nc(N2CCOCC2)n1` [Compound 6J1], where the note is “ATG5-knockout HeLa cells”, the “6J1-induced PD-L1 puncta” value was “no effect on 6J1-induced PD-L1 puncta”; the “PD-L1/LC3B colocalization in 6J1-treated cells” value was “abolishes this colocalization between PD-L1 and LC3B”. For the setting “LC3B-knockout HeLa cells”, the “6J1-induced PD-L1 puncta and PD-L1 colocalization with RAB5 or RAB27A” value is given as “LC3B knockout does not affect”. Moreover, for the setting “PD-L1-GFP HeLa cells”, the “accumulation of PD-L1 in vesicles colocalized with early endosome markers EEA1 and RAB5” value is “clearly induces the accumulation of PD-L1 within vesicle-like structures in the cytoplasm”; the “colocalization between PD-L1 and RAB11 (recycling endosome marker)” value was “markedly decreases the colocalization between PD-L1 and RAB11”; the “colocalization of PD-L1 with exosomal markers TSG101, CD63, Rab27A” value is recorded as “significantly induces the colocalization of PD-L1 with the exosomal markers”. For the setting “control HeLa cells with PD-L1-GFP and LC3-RFP”, the “colocalization of PD-L1-containing vesicles with LC3B puncta” value is given as “strongly colocalized with LC3B puncta”.
